Entries after “also recorded” stand apart in the source; their conditions may differ.
Tests used:
WT Zebrafish = test: WT zebrafish embryo developmental defect (teratogenicity) screen; assay type: in vivo; conditions: for Eye development / eye diameter in zebrafish embryos / Pectoral fin development / fin length in zebrafish embryos: Figure 4, result in words; for Lowest effective concentration, WT Zebrafish assay: screened 1-200 μg/mL, where no activity was seen the concentration shown is the lowest screened
[1] = tested on: fli1:EGFP zebrafish embryos; test: fli1:EGFP zebrafish embryo angiogenesis assay (intersegmental vessel outgrowth and number); assay type: in vivo; conditions: for minimal effective concentration: Danio rerio, 24 h, 24 hpf embryos exposed 24 h, screened 1-200 μg/mL, where no activity was seen the concentration shown is the lowest screened; for Anti-angiogenic activity (loss of ISVs or inhibition of ISV outgrowth): fli1:EGFP embryos, 24 h incubation, result in words
Description: To determine if our novel thalidomide analogs (Figure 1) had any effect on in vivo angiogenesis, we used fli1:EGFP embryos which express green fluorescent protein (GFP) on endothelial cells throughout development. Embryos were allowed to develop for 24 hours, then exposed to either vehicle or a compound of interest at the concentration range of 1 to 200 μg/mL. During this time the vasculature is rapidly expanding and developing new, naive intersegmental vessels (ISVs). The embryos were imaged after 24 hours of incubation with the drug (Figure 2A). […] We also observed that the potency of each compound varied.
Figure 2 The effect of novel thalidomide analogs on vessel length fli1:EGFP zebrafish were incubated with vehicle or compounds for 24 hours, at which point vessel outgrowth and number were measured. A. Images of zebrafish exposed to the vehicle or test compounds. […] Treatment with C4 (1.5 μg/mL), C18 (50 μg/mL), C81 (50 μg/mL), C82 (5 μg/mL), C83 (20 μg/mL) and C84 (50 μg/mL) show reduction in vessel out growth (white arrow) and in some cases loss of vessel (white asterisks). B. Stalk length & C. stalk number are reduced. Compounds are shown at the lowest concentration producing an effect. The data represent the mean + the standard error of the mean.
Zebrafish embryos were treated with analogs as previously described. Briefly, fli1:EGFP embryos were collected and embryos were allowed to develop for 24 hours. Embryos were dechorionated manually and exposed to test compounds or vehicle control (0.1% DMSO) for a further 24 hours. Embryos were anesthetized with 0.05% MS222 (Tricaine) (Sigma Aldrich) and live visualization of blood vessels was carried out.
(§1) A broad series of novel thalidomide-based compounds were chemically synthesized (WL, NHG and WDF, NIH), dissolved in DMSO, stored in stock concentrations between 10-100 mg/mL, and used at a final working DMSO concentration of 0.1%. The chemical structures of lead compounds of interest were confirmed by chemical characterization (purity >99.5%). Compounds were screened across a range of concentrations from 1-200 μg/mL to determine the lowest effective concentration.

TNF-α [2] = tested on: TNF-α; design: method as in PMID 22642825, PMID 22277195; conditions: cited from earlier work
[3] = tested on: Tg(MPO::EGFP)^114 zebrafish; test: Tg(MPO::EGFP)^114 zebrafish tail fin clip assay of neutrophil migration to the wound site; assay type: in vivo; conditions: for minimal effective concentration: Danio rerio, Neutrophil, fin clipped at 72 hpf, imaged at 24 h, screened 1-200 μg/mL, where no activity was seen the concentration shown is the lowest screened; for Effect on neutrophil migration to the wound site (anti-inflammatory activity): fin clipped 72 hpf embryos, result in words
Description: To assess the immunomodulatory effects of the thalidomide analogs across the concentration range used in the previous assay, the transgenic zebrafish line Tg(MPO::EGFP)^114 was used. These embryos express GFP tagged myeloperoxidase, marking neutrophils during the inflammatory response, for example following injury. […] This allowed us to subsequently assess the anti-inflammatory activity of each compound by immersing embryos in the test drug or vehicle. The embryos were examined for migration of neutrophils to the wound site. In comparison to control embryos (Figure 3A) compounds with anti-inflammatory properties had reduction of at least 50% of neutrophils recruited to the wound site (Figure 3). […] We also screened the previously identified six anti-angiogenic compounds of interest in the Tg(MPO::EGFP)^114 line.
Figure 3 The effect of thalidomide analogs on the inflammatory response to wound healing A. Zebrafish (72 hpf) embryos transgenic for a fluorescently tagged neutrophil marker Tg(MPO::EGFP)^114 were fin clipped to induce an inflammatory response and exposed to vehicle or a test compound. Broken line indicates the tail fin with cut and area of the wound site. […] The data represent the mean + the standard error of the mean.
Tg(MPO::EGFP)^114 embryos were tail fin clipped as previously detailed and incubated with test compounds or vehicle control at 72 hpf. Fish were imaged at 24 hours and the number of migratory neutrophils present at the wound site were counted. Compounds inducing an at least 50% reduction of neutrophils to the wound site were considered to have anti-inflammatory properties in this system. All larvae were assessed for viability and morphological integrity. A minimum of 10 embryos were used per concentration per drug. Error bars represent standard error of the mean.
as §1

TNF-α [4] = tested on: TNF-α; design: method as in PMID 22642825, PMID 22277195; conditions: rats challenged with systemic LPS; cited from earlier work
chicken embryos = test: In ovo chicken embryo teratogenicity assay; assay type: in vivo, white leghorn chicken; conditions: for Lowest effective concentration, Chicken assay: HH stage 17-18 embryos, where no activity was seen the concentration shown is the lowest screened; for Defects in chicken embryo development (text and figure legend): applied at HH stage 17-18, result in words; for Teratogenicity in these assays: chicken and zebrafish embryo assays together, result in words; for Damage observed: HH stage 17-18 chicken embryos, 100 μg/mL
Description: Compounds of interest were screened in chicken and/or zebrafish embryos (Figure 4), to determine if these compounds are teratogenic. The chicken embryo is well established as a model to determine the action of compounds upon development.
Fertilized white leghorn chicken embryos were incubated at 38°C and staged according to the Hamburger and Hamilton (HH) stages of development. Embryos were tested at HH stage 17-18 (day 2.5). Following membrane removal test compounds or vehicle control solutions were applied over the embryo. The eggs were sealed and the development of the embryos was monitored up to HH stage 30 (E9). A minimum of 3 embryos were used per concentration, per drug.

Compound	Eye development / eye diameter in zebrafish embryos (WT Zebrafish)	Pectoral fin development / fin length in zebrafish embryos (WT Zebrafish)	Lowest effective concentration, WT Zebrafish assay (WT Zebrafish) [µg/mL]	minimal effective concentration [1] [µg/mL]	Anti-angiogenic activity (loss of ISVs or inhibition of ISV outgrowth) [1]	Effect on LPS-induced elevations in TNF-α, cultured RAW 264.7 cells (TNF-α [2])	minimal effective concentration [3] [µg/mL]	Effect on neutrophil migration to the wound site (anti-inflammatory activity) [3]	Effect on LPS-induced elevations in TNF-α, plasma and brain of rats (TNF-α [4])	Lowest effective concentration, Chicken assay (chicken embryos) [µg/mL]	Defects in chicken embryo development (text and figure legend) (chicken embryos)	Teratogenicity in these assays (chicken embryos)	Damage observed (chicken embryos)	Migration of neutrophils relative to control ([3]; fin clipped embryos, Figure 3)	Lowest effective anti-angiogenic concentration, fli1:EGFP assay (molar) ([1]; inhibition of vessel outgrowth and number, 24 h exposure) [µM]
O=C1NC(=S)CCC1N1C(=O)c2ccccc2C1=S (stereo not drawn) [Compound C2, 2,3-dihydro-2-(2-oxo-6-thioxo-3-piperidinyl)-3-thioxo-1H-isoindol-1-one]	normal eye development	normal	10	10	without anti-angiogenic activities	potently lower lipopolysaccharide (LPS)-induced elevations in TNF-α	10	reduced neutrophil migration; also recorded: significant anti-inflammatory action	potently lower lipopolysaccharide (LPS)-induced elevations in TNF-α	100	no effect	non-teratogenic			
Nc1ccc2c(c1)OC(=O)C(C1CCC(=O)NC1=O)C2=O (stereo not drawn) [Compound C24]			50	50			50	reduced neutrophil migration		100	abnormal blood vessels and necrotic-like regions in the surrounding yolk sac membrane; also recorded: hemorrhaging and necrotic-like damage in the YSM; also recorded: twisted spinal cords, necrotic-like damage in the YSM and high death rates		Necrotic YSM, hemorrhaging		
O=C1CCC(N2C(=O)c3ccncc3C2=O)C(=O)N1 (stereo not drawn) [Compound C58, 5-Aza-thalidomide]			5	10	without anti-angiogenic activities		5	reduced neutrophil migration		100	no effect	non-teratogenic		10 % of the control	
O=C1c2ccccc2C(=O)N1c1nc2ccc(C(F)(F)F)cc2s1 [Compound C59]			100	10	without anti-angiogenic activities		100	reduced neutrophil migration			no effect	non-teratogenic			
CC(N1Cc2c(N)cccc2C1=O)C12CC3CC(CC(C3)C1)C2 (stereo not drawn) [Compound C81]		reductions	10		anti-angiogenic activity		50			100	microphthalmia; also recorded: growth reduction and hemorrhaging throughout head		Hemorrhaging, microopthalmia,		161.07
O=C1c2cccc([N+](=O)[O-])c2CN1C1C2CC3CC(C2)CC1C3 (stereo not drawn) [Compound C82]	reductions in eye diameter	reductions	5		anti-angiogenic activity		5	significantly reduce neutrophil migration		100	limb and digit defects		Limb reduction defect		
Nc1cccc2c1CN(C1C3CC4CC(C3)CC1C4)C2=O (stereo not drawn) [Compound C83]	reductions in eye diameter		10		anti-angiogenic activity		20			100	hemorrhaging; also recorded: abnormal blood vessels and necrotic-like regions in the surrounding yolk sac membrane		Necrotic YSM, hemorrhaging		
O=C1c2cccc([N+](=O)[O-])c2CN1C12CC3CC(CC(C3)C1)C2 [Compound C84]	reductions in eye diameter		10		anti-angiogenic activity		10			100	hemorrhaging		Hemorrhaging		

— PMC5078090, “In vivo screening and discovery of novel candidate thalidomide analogs in the zebrafish embryo and chicken embryo model systems” (Oncotarget, 2016)
